The values that follow are results of earlier work, collected in patent US5565430A, “Azaaspartic acid analogs as interleukin-1β converting enzyme inhibitors” (Sterling Winthrop Inc., priority 1994, dated 1996).

Series [1] concerns patients with active rheumatoid arthritis. The note with it: subcutaneous, after three weeks of daily treatment.
Series [2] concerns chronic myelogenous leukemia cells. The settings on record: cells removed from leukemia patients.
Series [3] has as its system rabbit immune complex colitis. The settings on record: animal model of colitis.
The subject of series [4] is patients with rheumatoid arthritis. The settings on record: subcutaneous, open-label.
Series [5] has as its system PG-APS model of arthritis in rats.
The next series has as its system allergic subjects. The settings on record: randomized, double-blind, placebo-controlled.

As for “Antril: The IL-1 receptor antagonist, Antril (Synergen)”, the “antiinflammatory activity in rheumatoid arthritis patients” value in series [1] is “decrease in joint swelling and less disease activity”.
In the case of “IL-1ra: IL-1 receptor antagonist, naturally occurring”, the “colony growth of leukemia cells” value in series [2] was “inhibit colony growth”. In addition, the “tissue necrosis and inflammatory cells in colon” value in series [3] was “reduced tissue necrosis and the number of inflammatory cells in the colon”. Besides, the “efficacy in rheumatoid arthritis trial” value in series [4] is given as “shows efficacy”. Further, in series [5], the joint swelling entry is “supresses joint swelling”.

B1: Soluble IL-1 receptor: Soluble IL-1 receptor (protein, UniProt P14778 18-336, looked up)
extracellular domain: LEADKCKEREEKIILVSSANEIDVRPCPLNPNEHKGTITWYKDDSKTPVSTEQASRIHQHKEKLWFVPAKVEDSGHYYCVVRNSSYCLRIKISAKFVENEPNLCYNAQAIFKQKLPVAGDGGLVCPYMEFFKNENNELPKLQWYKDCKPLLLDNIHFSGVKDRLIVMNVAEKHRGNYTCHASYTYLGKQYPITRVIEFITLEENKPTRPVIVSPANETMEVDLGSQIQLICNVTGQLSDIAYWKWNGSVIDEDDPVLGEDYYSVENPANKRRSTLITVLNISEIESRFYKHPFTCFAKNTHGIDAAYIQLIYPVTNFQK
modifications: extracellular domain
Regarding B1, the “colony growth of leukemia cells” value in series [2] is listed as “inhibit colony growth”. In the series with allergic subjects, the “cutaneous late-phase allergic reaction” value is given as “significantly reduces clinically the cutaneous late-phase allergic reaction”.
